This is an account of results in US20130116263A1, “PAK INHIBITORS FOR THE TREATMENT OF CELL PROLIFERATIVE DISORDERS” (AFRAXIS, INC., priority 2011, published 2013).

Like-named read-outs stand apart in the source and are kept apart here.

The subject of one assay is p-MEK1(S298). The assay can be described thus: In vitro cellular HTRF assay for p-MEK1(S298). It is filed as cell-based. The conditions noted are these: cell line RT4-D6P2T, read-out: pMEK1(S298). The source says: (§1) Some of the compounds for treatment of cancer are subject to in vitro cellular HTRF assay for p-PAK1(S144) and p-MEK1(S298). The cell line is RT4-D6P2T.
A further assay concerns p-PAK1(S144). The assay can be described thus: In vitro cellular HTRF assay for p-PAK1(S144). It is filed as cell-based. The conditions noted are these: cell line RT4-D6P2T, read-out: pPAK1(S144).
Excerpt: as §1
(TR-FRET usually uses a lanthanide donor and a delayed reading to cut background.)

Another assay addresses PAK1 (Homo sapiens, UniProt Q13153). The assay can be described thus: Additional in vitro PAK1 inhibition assay at ATP 10 uM and 1 mM. It counts as biochemical. How it is done: (§2) Similar in vitro PAK1 and PAK-4 inhibition assays are conducted in compounds for the treatment of cancer, but under ATP concentrations of 10 uM and 1 mM.
In a further assay the target is PAK4 (Homo sapiens, UniProt O96013). The assay can be described thus: Additional in vitro PAK-4 inhibition assay at ATP 10 uM and 1 mM. It counts as biochemical. The conditions noted are these: 10 μM ATP; read-out: PAK4 IC50 (10 μM ATP). Here is the method:
as §2

[1] abbreviates: 10 μM ATP, read-out: PAK1 IC50 (10 μM ATP).
[2] abbreviates: 1 mM ATP, read-out: PAK1 IC50 (1 mM ATP).

PAK4, sequence (O96013 whole entry): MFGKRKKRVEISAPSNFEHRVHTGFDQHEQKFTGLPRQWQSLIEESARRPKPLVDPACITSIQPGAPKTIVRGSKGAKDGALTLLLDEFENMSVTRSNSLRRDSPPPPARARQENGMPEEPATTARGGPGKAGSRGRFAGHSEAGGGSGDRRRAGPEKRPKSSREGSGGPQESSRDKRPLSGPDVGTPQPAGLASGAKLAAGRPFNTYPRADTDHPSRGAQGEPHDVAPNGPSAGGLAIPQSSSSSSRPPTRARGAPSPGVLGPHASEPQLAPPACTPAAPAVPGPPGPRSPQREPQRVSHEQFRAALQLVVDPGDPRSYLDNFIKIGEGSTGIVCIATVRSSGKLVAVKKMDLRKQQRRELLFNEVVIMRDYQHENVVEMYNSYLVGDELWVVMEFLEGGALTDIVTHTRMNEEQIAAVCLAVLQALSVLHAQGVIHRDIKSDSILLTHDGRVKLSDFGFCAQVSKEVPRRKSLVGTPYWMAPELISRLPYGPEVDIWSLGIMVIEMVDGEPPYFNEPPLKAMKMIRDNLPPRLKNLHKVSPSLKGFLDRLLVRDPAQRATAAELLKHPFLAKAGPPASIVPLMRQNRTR
PAK1, sequence (Q13153 whole entry): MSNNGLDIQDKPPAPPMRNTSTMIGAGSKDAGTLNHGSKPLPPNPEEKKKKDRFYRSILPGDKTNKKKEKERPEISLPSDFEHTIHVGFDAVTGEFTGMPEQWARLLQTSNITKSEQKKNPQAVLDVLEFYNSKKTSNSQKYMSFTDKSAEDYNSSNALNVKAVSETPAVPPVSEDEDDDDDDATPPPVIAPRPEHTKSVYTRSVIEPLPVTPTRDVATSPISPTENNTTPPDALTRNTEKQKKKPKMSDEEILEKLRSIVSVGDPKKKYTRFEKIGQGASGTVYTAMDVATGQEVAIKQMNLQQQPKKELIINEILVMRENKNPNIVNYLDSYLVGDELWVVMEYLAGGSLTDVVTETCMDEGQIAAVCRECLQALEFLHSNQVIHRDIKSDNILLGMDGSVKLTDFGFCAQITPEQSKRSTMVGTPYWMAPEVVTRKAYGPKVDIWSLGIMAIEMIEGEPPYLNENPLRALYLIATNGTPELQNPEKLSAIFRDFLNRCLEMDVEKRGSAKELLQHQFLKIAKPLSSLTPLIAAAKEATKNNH

Turning to `CCn1c(=O)c(-c2ccc(-c3cncc(C)n3)cc2Cl)cc2cnc(NCCC3CCN(C)CC3)nc21` [drawing 390], the IC50 with p-MEK1(S298) and in the assay with p-PAK1(S144) was 50 to 500 nM in each case.
On to `CCn1c(=O)c(-c2ccc(-c3nccnc3C)cc2Cl)cc2cnc(NC3CCOC(C)(C)C3)nc21` (stereo not shown) [drawing 385], for which the IC50 in the assay on p-MEK1(S298) and in the assay on p-PAK1(S144) was 500 to 5000 nM each time.
Consider `Cc1nc(-c2ccc(-c3cc4cnc(NC5CCOCC5)nc4n(CCC4CCNCC4)c3=O)c(Cl)c2)no1` [drawing 378], for which the IC50 with p-MEK1(S298) was 500 to 5000 nM.
Take `CCn1c(=O)c(-c2ccc(-c3cncc(C)n3)cc2Cl)cc2cnc(N[C@H]3CCOC3)nc21` [drawing 389]: the IC50 was more than 5000 nM in the assay on p-MEK1(S298) and 500 to 5000 nM with p-PAK1(S144).
For `CCn1c(=O)c(-c2ccc(-c3cncc(C)n3)cc2Cl)cc2cnc(NC3CCOCC3)nc21` [drawing 391], the IC50 in the assay on p-MEK1(S298) lay in the range of 500 to 5000 nM; in the assay on p-PAK1(S144) it was 50 to 500 nM.
The corresponding values for `Cc1nc(-c2ccc(-c3cc4cnc(NC5CCOCC5)nc4n(Cc4cccc(OCCN)c4)c3=O)c(Cl)c2)no1` [drawing 380] are 500 to 5000 nM and 500 to 5000 nM.
Take `Cc1nc(-c2ccc(-c3cc4cnc(NC5CCOCC5)nc4n(CC(=O)NCc4ccncc4)c3=O)c(Cl)c2)no1` [drawing 388]: the IC50 in the assay with p-MEK1(S298) is more than 5000 nM; in the assay with p-PAK1(S144), 500 to 5000 nM.
The corresponding values for `Cc1cncc(-c2ccc(-c3cc4cnc(N[C@@H]5CCOC5)nc4n(CCCN)c3=O)c(Cl)c2)n1` [drawing 384] are 500 to 5000 nM and 500 to 5000 nM.
The corresponding values for `CN(C)C[C@@H](NC(=O)N1Cc2c(Nc3ncnc4sccc34)n[nH]c2C1(C)C)c1ccccc1` are 500 to 5000 nM and 50 to 500 nM.
The corresponding values for `Cc1nc(-c2ccc(-c3cc4cnc(NC5CCOCC5)nc4n(Cc4cccc(CCN)c4)c3=O)c(Cl)c2)no1` [drawing 395] are 50 to 500 nM and 50 to 500 nM.
Regarding `Cc1nc(-c2ccc(-c3cc4cnc(NC5CCOCC5)nc4n(Cc4ccc(CN)cc4)c3=O)c(Cl)c2)no1` [drawing 397], the IC50 in the assay on p-MEK1(S298) was 500 to 5000 nM; in the assay on p-PAK1(S144), 50 to 500 nM.
In the same order, the values of `CCn1c(=O)c(-c2ccc(-c3cccc(C)n3)cc2Cl)cc2cnc(N[C@H]3CC[C@H](CN(C)C)CC3)nc21` are 500 to 5000 nM and 500 to 5000 nM.
`CCn1c(=O)c(-c2ccc(-c3cncc(C)n3)cc2Cl)cc2cnc(NCC3CCC(N)CC3)nc21` (stereo not shown) [drawing 383]: the values for the IC50 in the assay on p-MEK1(S298) and with p-PAK1(S144) were 500 to 5000 nM and 50 to 500 nM, respectively.
As for `Cc1nc(-c2ccc(-c3cc4cnc(NC5CCOCC5)nc4n(CC(=O)N4CCC(CN)CC4)c3=O)c(Cl)c2)no1` [drawing 381], the IC50 with p-MEK1(S298) is more than 5000 nM.
For `Cc1nc(-c2ccc(-c3cc4cnc(NC5CCOCC5)nc4n(CC4CCNCC4)c3=O)c(Cl)c2)no1` [drawing 396], the IC50 in the assay with p-MEK1(S298) is 500 to 5000 nM; in the assay with p-PAK1(S144), 50 to 500 nM.
The corresponding values for `Cc1nc(-c2ccc(-c3cc4cnc(NC5CCNC(=O)C5)nc4n(Cc4c(F)cccc4C(F)(F)F)c3=O)c(Cl)c2)no1` (stereo not shown) [drawing 382] are more than 5000 nM and 500 to 5000 nM.
In the same order, the values of `Cc1nc(-c2ccc(-c3cc4cnc(NC5CCOCC5)nc4n(Cc4ccc(CCN)cc4)c3=O)c(Cl)c2)no1` [drawing 394] are 500 to 5000 nM and 50 to 500 nM.
For the molecule `Cc1nc(-c2ccc(-c3cc4cnc(NC5CCOCC5)nc4n(Cc4cccc(OCCN)c4)c3=O)c(Cl)c2)no1` [drawing 344], the IC50 at PAK1 (setting [1]) was less than 50 nM; at PAK1 (setting [2]), 500 to 5000 nM; on PAK4, not below 5000 nM.
In the same order, the values of `CCn1c(=O)c(-c2ccc(-c3noc(C)n3)cc2Cl)cc2cnc(NCC3CCOCC3)nc21` are 500 to 5000 nM, not below 5000 nM and not below 5000 nM.
Turning to `CCn1c(=O)c(-c2ccc(-c3noc(C)n3)cc2Cl)cc2cnc(NCCC3CCN(C)CC3)nc21` [drawing 361], the figures for the IC50 at PAK1 (setting [1]), on PAK1 (setting [2]) and on PAK4 were 50 to 500 nM, not below 5000 nM and not below 5000 nM, respectively.
As to `CCn1c(=O)c(-c2ccc(-c3noc(C)n3)cc2Cl)cc2cnc(N[C@@H]3CCO[C@@H]3N3CCN(C)CC3)nc21`, the IC50 is 50 to 500 nM on PAK1 (setting [1]), not below 5000 nM at PAK1 (setting [2]) and not below 5000 nM at PAK4.
With `CCCCn1c(=O)c(-c2ccc(-c3noc(C)n3)cc2Cl)cc2cnc(NC3CCOCC3)nc21`, the IC50 was 50 to 500 nM at PAK1 (setting [1]), not below 5000 nM on PAK1 (setting [2]) and not below 5000 nM on PAK4.
On to `Cc1nc(-c2ccc(-c3cc4cnc(NC5CCOCC5)nc4n(CC(=O)NC4CCNC4)c3=O)c(Cl)c2)no1` (stereo not shown) [drawing 387], for which the IC50 with p-MEK1(S298) is more than 5000 nM.
Regarding `CCN1CCC(CCNc2ncc3cc(-c4ccc(-c5noc(C)n5)cc4Cl)c(=O)n(CC)c3n2)CC1`, the values for the IC50 at PAK1 (setting [1]), on PAK1 (setting [2]) and on PAK4 were 50 to 500 nM, 500 to 5000 nM and not below 5000 nM, respectively.
The corresponding values for `CCn1c(=O)c(-c2ccc(-c3noc(C)n3)cc2Cl)cc2cnc(N[C@H]3CC[C@H](N4CCN(C)CC4)CC3)nc21` are 500 to 5000 nM, not below 5000 nM and not below 5000 nM.
In the same order, the values of `Cc1nc(-c2ccc(-c3cc4cnc(NC5CCOCC5)nc4n(Cc4ccc(CN)cc4)c3=O)c(Cl)c2)no1` [drawing 341] are less than 50 nM, 50 to 500 nM and not below 5000 nM.
Take `Cc1nc(-c2ccc(-c3cc4cnc(NC5CCOCC5)nc4n(CC(=O)N4CCC(CN)CC4)c3=O)c(Cl)c2)no1` [drawing 352]: the figures for the IC50 at PAK1 (setting [1]), on PAK1 (setting [2]) and on PAK4 were less than 50 nM, not below 5000 nM and not below 5000 nM, respectively.
For the molecule `CCn1c(=O)c(-c2ccc(-c3noc(C)n3)cc2Cl)cc2cnc(NCc3ccncc3)nc21`, the results for the IC50 at PAK1 (setting [1]), on PAK1 (setting [2]) and on PAK4 were 50 to 500 nM, not below 5000 nM and not below 5000 nM, respectively.
As to `CCn1c(=O)c(-c2ccc(-c3cccnc3F)cc2Cl)cc2cnc(NC3CCOCC3)nc21` [drawing 392], the IC50 in the assay on p-MEK1(S298) and in the assay on p-PAK1(S144) was 500 to 5000 nM each time.
In the case of `CCn1c(=O)c(-c2ccc(-c3noc(C)n3)cc2Cl)cc2cnc(NC3CCC(=O)NC3)nc21` (stereo not shown), the IC50 on PAK1 (setting [1]) was 500 to 5000 nM; at PAK1 (setting [2]) it was not below 5000 nM; on PAK4 it was not below 5000 nM.
As for `Cc1nc(-c2ccc(-c3cc4cnc(NC5CCOCC5)nc4n(Cc4c(F)cccc4C(F)(F)F)c3=O)c(Cl)c2)no1`, the IC50 at PAK1 (setting [1]) is 50 to 500 nM; at PAK1 (setting [2]), 500 to 5000 nM; on PAK4, not below 5000 nM.
As for `Cc1nc(-c2ccc(-c3cc4cnc(NC5CCOCC5)nc4n(CC4CCN(C)CC4)c3=O)c(Cl)c2)no1`, the IC50 was 50 to 500 nM on PAK1 (setting [1]), not below 5000 nM at PAK1 (setting [2]) and not below 5000 nM on PAK4.
Regarding `Cc1nc(-c2ccc(-c3cc4cnc(NC5CCOCC5)nc4n(Cc4cccc(CN)c4)c3=O)c(Cl)c2)no1` [drawing 379], the IC50 with p-MEK1(S298) fell in the range of 500 to 5000 nM; with p-PAK1(S144), 50 to 500 nM.
With `Cc1nc(-c2ccc(-c3cc4cnc(NC5CCOCC5)nc4n(Cc4cccc(CCN)c4)c3=O)c(Cl)c2)no1` [drawing 339], the IC50 was less than 50 nM on PAK1 (setting [1]), 50 to 500 nM on PAK1 (setting [2]) and not below 5000 nM at PAK4.
In the same order, the values of `CCn1c(=O)c(-c2ccc(-c3noc(C)n3)cc2Cl)cc2cnc(NCCCNC(C)=O)nc21` are 500 to 5000 nM, not below 5000 nM and not below 5000 nM.
